# Values of other authors, collected in publication PMC11979685, “Synthesis of Derivatives of the Antibiotic Albicidin: The N‐Terminal Fragment as Key to Control Potency and Resistance Mediated by the Binding Protein AlbA” (Chemistry (Weinheim an Der Bergstrasse, Germany), 2025).
# What was measured:
# Parameters in all cases: method as in PMID 36741192
# E. coli = E. coli in presence of 50 % human serum; already published elsewhere; cited from earlier work
# [1] = tested on: Mycobacterium phlei DSM 750; details: already published elsewhere; cited from earlier work
# E. coli DSM1116 = details: already published elsewhere; cited from earlier work
# E. coli BW25113 = details: already published elsewhere; cited from earlier work
# Bacillus subtilis DSM 10 = details: already published elsewhere; cited from earlier work
# E. coli DNA gyrase = E. coli DNA gyrase (Escherichia coli, UniProt P0AES4); details: E. coli gyrase DNA cleavage; already published elsewhere; read-out: CC50 (concentration at half-maximum cleavage); cited from earlier work
# [2] = tested on: Salmonella typhimurium TA100; details: already published elsewhere; cited from earlier work
# [3] = tested on: Micrococcus luteus DSM 1790; details: already published elsewhere; cited from earlier work
# Chain of E. coli DNA gyrase (P0AES4 whole entry): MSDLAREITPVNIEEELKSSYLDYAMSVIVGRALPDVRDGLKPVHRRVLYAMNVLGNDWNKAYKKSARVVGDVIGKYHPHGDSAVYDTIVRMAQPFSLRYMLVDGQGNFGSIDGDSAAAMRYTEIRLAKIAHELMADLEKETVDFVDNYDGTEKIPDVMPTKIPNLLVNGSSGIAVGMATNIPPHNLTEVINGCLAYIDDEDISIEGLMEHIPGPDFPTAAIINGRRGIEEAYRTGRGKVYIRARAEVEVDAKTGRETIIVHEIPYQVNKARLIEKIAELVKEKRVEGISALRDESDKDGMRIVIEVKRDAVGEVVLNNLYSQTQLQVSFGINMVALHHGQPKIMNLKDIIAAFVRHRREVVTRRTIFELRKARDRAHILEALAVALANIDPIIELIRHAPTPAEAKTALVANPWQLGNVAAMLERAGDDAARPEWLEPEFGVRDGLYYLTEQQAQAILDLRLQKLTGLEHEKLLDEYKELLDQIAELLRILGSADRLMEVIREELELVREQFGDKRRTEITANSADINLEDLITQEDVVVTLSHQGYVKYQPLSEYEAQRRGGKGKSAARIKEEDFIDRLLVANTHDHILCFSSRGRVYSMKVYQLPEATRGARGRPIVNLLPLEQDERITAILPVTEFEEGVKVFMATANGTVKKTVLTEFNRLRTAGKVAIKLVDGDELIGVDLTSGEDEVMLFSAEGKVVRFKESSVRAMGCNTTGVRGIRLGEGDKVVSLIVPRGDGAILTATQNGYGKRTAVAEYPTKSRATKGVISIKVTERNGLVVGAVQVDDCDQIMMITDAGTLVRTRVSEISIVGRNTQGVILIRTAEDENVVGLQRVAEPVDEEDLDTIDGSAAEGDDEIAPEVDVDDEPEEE
smiles,measurement,setting,value
COc1c(NC(=O)c2ccc(NC(=O)c3ccc(NC(=O)[C@H](Cc4c[nH]nn4)NC(=O)c4ccc(NC(=O)c5ccc6nc(C)ccc6c5)cc4)cn3)c(OC)c2O)ccc(C(=O)O)c1O [compound 16],MICEc 50%HS,E. coli,0.5 µg/mL
same,MIC M. phlei,[1],0.5 mg/L
same,MIC E. coli DSM1116,E. coli DSM1116,0.016 mg/L
same,MIC E. coli BW25113,E. coli BW25113,0.016 mg/L
same,MIC B. sub.,Bacillus subtilis DSM 10,0.063 mg/L
same,CC50,E. coli DNA gyrase,0.025 µM
same,MIC S. typh.,[2],≤0.016 mg/L
same,MIC M. luteus,[3],0.063 mg/L
